Assay [1] deals with human breast cancer (MDA-MB-468). The assay is described as follows: Example 11: FK330 with docetaxel in MDA-MB-468 tumor-bearing mice. Type of assay: in vivo, nude mice. Particulars: FK330 100 mg/kg bid p.o. + docetaxel 15 mg/kg/day i.v. (Day 0 and Day 37). The method, then:
(§1) The dose of FK330 is expressed in terms of the weight of a simple substance (non-hydrate). Docetaxel (a docetaxel hydrate injectable preparation (Taxotere (trademark), for intravenous infusion)) was purchased from Sanofi-Aventis SA, and was used as docetaxel.
FK330 was suspended (20 mg/mL) in a 0.5% aqueous methyl cellulose solution (0.5% MC), and was orally administered. Docetaxel was prepared to a concentration of 20 mg/mL with 95% ethanol, and then diluted to 1.5 mg/mL with physiological saline for injection (Otsuka Pharmaceutical Group) immediately before administration and intravenously administered through the tail vein.
Human breast cancer-derived MDA-MB-468 (HTB-132) was obtained from American Type Culture Collection (VA, USA). […]
(§2) The body weight and the tumor diameter, determined by using a digital caliper, were measured twice a week. The tumor volume was calculated from the calculation formula for ellipsoid volume of (major axis×[minor axis]^2×0.5).
(§3) The results are expressed as the mean value (Mean)±standard error (SEM). […] Using the actual measured values of the tumor volume at each measurement time point, an unpaired statistical test (Student's t-test) of the difference between two groups was carried out between a single administration group and a combined use group. […]

In assay [2] the test system is human hormone-resistant prostatic cancer (PC-3). Description: Example 10: FK330 with docetaxel in PC-3 tumor-bearing mice. The class given is in vivo, nude mice. Particulars: FK330 100 mg/kg bid p.o. + docetaxel 10 mg/kg/day i.v. (2 days each cycle). Here is the method: as §1
FK330 was suspended (20 mg/mL) in a 0.5% aqueous methyl cellulose solution (0.5% MC), and was orally administered. Docetaxel was prepared to a concentration of 20 mg/mL with 95% ethanol, and then diluted to 1 mg/mL with physiological saline for injection (Otsuka Pharmaceutical Group) immediately before administration and intravenously administered through the tail vein.
Human hormone-resistant prostatic cancer-derived PC-3 (CRL-1435) was obtained from American Type Culture Collection (VA, USA). […]
as §2, §3

For the compound `O=C(/C=C/c1ccc(Cl)cc1)N[C@@H](Cc1ccccn1)C(=O)NCC(=O)N1CCC(Oc2cc(C(F)(F)F)ncn2)CC1` [FK330, N^2-[(2E)-3-(4-chlorophenyl)-2-propenoyl]-N-[2-oxo-2-(4-{[6-(trifluoromethyl)pyrimidin-4-yl]oxy}piperidin-1-yl)ethyl]-3-pyridin-2-yl-L-alaninamide], the “tumor volume reduction ratio compared with the docetaxel-only group” value in assay [1] (Day 37, P<0.05) turned out to be 46.6%; in assay [1] (Day 65, P<0.01) it was 76.6%; in assay [2] (Day 27, P<0.062), 49.3%; in assay [2] (Day 51, P<0.05), 42.0%.

For the origin of these results see patent publication US20140066385A1, “METHOD FOR TREATING CANCER BY COMBINED USE OF DRUGS” (Astellas Pharma Inc., priority 2011, published 2014).
